# In patent US8742082B2, “Compositions and methods for influencing satiety, lipid metabolism, and fat utilization” (Nestec S.A., priority 2008, dated 2014):
# Experiments:
# [1] = test system: Peroxisome proliferator activated receptor alpha (PPAR α); experiment: Real-time PCR gene expression in peripheral tissues: PPAR α; format: in vivo; details: proximal intestine; C57bl6j mice, high fat diet, 100 mg/kg/body weight in diet, 5 weeks
# Method: (§1) The expression of 45 genes was measured by real-time PCR in peripheral tissues to identify genes that were differentially expressed in response to oral administration of oleoylethanolamide (OEA) or a non-hydrolysable OEA analog (KDS 5104), which affect satiety, lipid metabolism, fat utilization, food intake, and body fat mass.
# (§2) Animals, diet, and experimental design. Adult male C57bl6j mice purchased at 8 weeks of age were individually housed and maintained ad libitum on high fat diet and water for 2 weeks. Seven mice were randomly allocated in 3 groups and fed with a high fat diet (lipids represented 50% of daily energy) for 2 weeks. […]
# (§3) RNA extraction and gene expression. […] The RNA concentration was determined on nanodrop from the absorbance at 260 nm. […] Real-time quantitative PCR (RT-qPCR) were performed on cDNA obtained as described above using a high through put system (Biomek 3000, Beckman & Coulter, Fullerton, USA) and a Lightcycler 480 (Roche/Hitachi, Basel, Switzerland) with SYBR Green Master mix+kit (Eurogentec, Philadelphia, USA). […] Values were expressed as ratio of RNA levels relative to control mice (diets with 0 mg of OEA/kg/body weight) using ΔΔ(Ct) (Livak K J & Schmittgen T D, 2001, Methods 25:402-8). Gene expression of the following genes was measured (abbreviation and GenBank Accession shown in parentheses). […]
# [2] = oral, over the 12 first hours; cited from earlier work
# [3] = Chronic oral OEA in high fat diet: liver, adipose fat pads and body weight; format: in vivo; details: C3H mice, 4 weeks
# Excerpt: The physiological and biochemical effects of chronic oral OEA administration were investigated. Mice were chronically fed with OEA, provided as a supplement during 4 weeks, to study the effect on body weight gain and cumulative food intake, among other parameters.
# Animals, diet and experimental design. Adult male C3H mice purchased at 8 weeks of age were individually housed and maintained ad libitum on different diets and water for 2 weeks. Seven mice were allocated in 3 groups by randomization by weight, and fed with a high fat diet (lipids represented 50% of daily energy) during 2 weeks. The composition of the high fat diet per kg was: 284.5 g of corn starch, 89.5 g of saccharose, 250 g of casein, 50 g of cellulose, 10 g of a mix of vitamins (V1001), 35 g of a mix of minerals (S10026) and 281 g of canola oil (UPAE, Jouy en Josas, France). Then, OEA was added to the diets at different levels to provide 0, 10, or 100 mg OEA/kg body weight. The mice were kept on each respective diet for 4 weeks. During the nutritional intervention, daily food intake was monitored and the mice were weighed 3 times a week.
# Sampling. At the end of the experimental period, mice were sacrificed by blood drawing after anesthesia with isoflurane. Plasma was obtained by centrifugation (1,000 g for 10 min at 4° C.). Mesenteric, epididymal, inguinal and peritoneal adipose depots, as well as liver, stomach, small intestine mucosa and gastrocnemian muscle were excised and frozen into liquid nitrogen. Plasma and organ samples were kept at −80° C. until analysis. Triglycerides, glucose, total cholesterol and HDL cholesterol were directly measured on plasma samples collected during the sacrifice by enzymatic procedures, using a Beckman Coulter Systems SYNCHRON LX 20 (Beckman Coulter, Fullerton, USA) (oxidase method, Beckman Coulter for glucose, GPO method, Beckman Coulter for TG, oxidase and esterase method, Beckman Coulter for cholesterol). HDL were isolated by specific solubilization, using a precipitation isolation kit (Beckman Coulter, Fullerton, USA).
# Statistical analysis. Results were determined as mean±standard error of the mean (SEM). Statistical analysis of physiological parameters was performed by one-way ANOVA on Statview software (SAS institute, Cary, USA). Statistical significance was set up at the P<0.05 level.
# AcylCoA oxidase (ACO) = experiment: Real-time PCR gene expression in peripheral tissues: ACO; format: in vivo; details: liver; C57bl6j mice, high fat diet, 100 mg/kg/body weight in diet, 5 weeks
# Method: as §1, §2, §3
# Visfatin = experiment: Real-time PCR gene expression in peripheral tissues: visfatin; format: in vivo; details: C57bl6j mice, high fat diet, 100 mg/kg/body weight in diet, 5 weeks
# Method: as §1
# Animals, diet, and experimental design. Adult male C57bl6j mice purchased at 8 weeks of age were individually housed and maintained ad libitum on high fat diet and water for 2 weeks. Seven mice were randomly allocated in 3 groups and fed with a high fat diet (lipids represented 50% of daily energy) for 2 weeks. For one kilogram, the composition of the high fat diet was: 235 g casein, 201 g saccharose, 3.5 g L-cystine, 85 g starch, 116 g maltodextrin, 60 g cellulose, 12 g vitamins mix (AIN-93M, UPAE, Jouy-en-Josas, France), 51.5 g mineral mix (AIN-93Vx, UPAE, Jouy-en-Josas, France), and 236 g lard. Then, either OEA or KDS 5104 was added to the diet at a concentration of 100 mg/kg/body weight. The mice were kept under treatment for 5 weeks.
# Sampling. At the end of the experimental period, mice were sacrificed by blood drawing (cardiac puncture) after anesthesia with isoflurane. Plasma was obtained by centrifugation (1,000 g for 10 min at 4° C.). Mesenteric, epididymal, inguinal and peritoneal adipose depots, as well as liver, stomach, small intestine mucosa, pancreas, and gastrocnemian muscle were removed and frozen into liquid nitrogen. Plasma, urine, feces, and organ samples were kept at −80° C. until analysis.
# RNA extraction and gene expression. Total RNA from liver, intestine mucous membrane, adipose tissues, gastrocnemian muscle, pancreas and stomach were extracted with TRIzol reagent (Invitrogen, Carlsbad, USA) according to the manufacturer's instruction. The RNA concentration was determined on nanodrop from the absorbance at 260 nm. […] Real-time quantitative PCR (RT-qPCR) were performed on cDNA obtained as described above using a high through put system (Biomek 3000, Beckman & Coulter, Fullerton, USA) and a Lightcycler 480 (Roche/Hitachi, Basel, Switzerland) with SYBR Green Master mix+kit (Eurogentec, Philadelphia, USA). […] Values were expressed as ratio of RNA levels relative to control mice (diets with 0 mg of OEA/kg/body weight) using ΔΔ(Ct) (Livak K J & Schmittgen T D, 2001, Methods 25:402-8). Gene expression of the following genes was measured (abbreviation and GenBank Accession shown in parentheses).
# Statistical analysis. […] Daily food intake was analyzed using two-way ANOVA on Statview software. […] For statistical analysis of the gene expression data, values were calculated relative to 18S expression for each mouse and gene.
# PPAR α = target: T1, PPAR α (Mus musculus, UniProt P23204); details: wild-type and PPAR α (−/−) mice; cited from earlier work
# T1 construct: host or cells: wild-type mice (endogenous protein)
# T1 sequence (P23204 whole entry): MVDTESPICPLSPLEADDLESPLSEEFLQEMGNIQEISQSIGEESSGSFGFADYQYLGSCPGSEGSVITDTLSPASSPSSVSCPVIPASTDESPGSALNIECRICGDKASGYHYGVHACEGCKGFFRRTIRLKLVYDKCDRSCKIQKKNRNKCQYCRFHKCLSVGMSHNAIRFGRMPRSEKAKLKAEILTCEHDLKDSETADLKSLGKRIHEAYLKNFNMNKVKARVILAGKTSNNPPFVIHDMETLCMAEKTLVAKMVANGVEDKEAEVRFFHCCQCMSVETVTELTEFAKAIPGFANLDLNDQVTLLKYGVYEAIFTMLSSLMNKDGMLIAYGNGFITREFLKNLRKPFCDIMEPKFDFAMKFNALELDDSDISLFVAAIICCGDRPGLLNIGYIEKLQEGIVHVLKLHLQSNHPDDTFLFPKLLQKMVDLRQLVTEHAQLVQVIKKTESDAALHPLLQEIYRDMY
compound,measurement,setting,value
"CCCCCCCC/C=C\CCCCCCCC(=O)NCCO [OEA, N-oleoyl-ethanolamide]","PPAR α i, ratio of RNA levels relative to control mice",[1],1.20
same,food intake after acute gavage,[2],decrease significantly
same,mesenteric fat pads,[3]; independently of the dose,remained unaffected
same,Peritoneal adipose tissue,[3]; OEA 10 or 100 mg/kg body weight,mainly decreased
same,Hepatomegaly,[3]; OEA in diet,did not induce hepatomegaly
same,final body weight,[3]; OEA in diet,not affected
same,inguinal fat pads (indicator of subcutaneous fat depot),"[3]; OEA in diet, P<0.05",decreased
same,"ACO l, ratio of RNA levels relative to control mice",AcylCoA oxidase (ACO),1.06
same,"visfatin at ep, ratio of RNA levels relative to control mice",Visfatin; epidydimal adipose tissue,−1.55
same,"visfatin at per, ratio of RNA levels relative to control mice",Visfatin; peritoneal adipose tissue,−1.80
same,"food intake, wild-type vs PPAR α (−/−) mice",PPAR α,regulates food intake in wild-type mice but not in PPAR α (−/−) mice
